Among the test systems are A498; CAKI-1; HOP-62; HT-29; K562; M14; MCF7; MDA-MB-435; MDA-N; NCI-H522; NCI/ADR-RES; SF-295; SK-MEL-28; SK-MEL-2; SN12C; SNB-19; SNB-75; SW-620; U-251.
Common to all, as to test: DTP human tumour cell line panel, 48 h

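Dose response: 5 concentrations. Exposure: 48 h. Format: 96-well plates. Endpoint: linear interpolation; highest concentration if not reached. At the GI50, growth is halved.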 The source made the active and inactive calls. Cut-off read from the data, not from the text of the source: active = GI50 up to about 1.1 µM and inactive = higher.

`CCCCCCCC(=O)N/N=C/c1ccc(Sc2nccn2C)c([N+](=O)[O-])c1`: the GI50 in the experiment on A498 was 15.2 µM (inactive); with CAKI-1 it was 15.5 µM (inactive); in the experiment with HOP-62 it was 17.5 µM (inactive); in the experiment with HT-29, 9.79 µM (inactive); with K562, 14.2 µM (inactive); in the experiment with M14 it was 13.2 µM (inactive). For the same molecule, the GI50 is 16.6 µM (inactive) in the experiment on MCF7; 13.6 µM (inactive) with MDA-MB-435; 16.5 µM (inactive) with MDA-N; 12.2 µM (inactive) in the experiment with NCI-H522; 17.7 µM (inactive) with NCI/ADR-RES; 15.6 µM (inactive) in the experiment with SF-295. For the same molecule, the GI50 with SK-MEL-28 is 13.9 µM (inactive); with SK-MEL-2, 16.6 µM (inactive); in the experiment with SN12C, 14.5 µM (inactive); in the experiment on SNB-19, 21.4 µM (inactive); in the experiment with SNB-75, 15.5 µM (inactive); in the experiment with SW-620 it was 14.9 µM (inactive). Moreover, the GI50 in the experiment on U-251 was 16.2 µM (inactive).
Turning to `CN(C)c1ccc(/C=C/C(=O)c2ccc(O)cc2)cc1`, the GI50 is 17.1 µM (inactive) with A498; 12.9 µM (inactive) in the experiment on CAKI-1; 10.1 µM (inactive) with HOP-62; 5.21 µM (inactive) with HT-29; 1.7 µM (inactive) in the experiment with K562; 4.14 µM (inactive) with M14. In addition, the GI50 with MCF7 is 4.11 µM (inactive); in the experiment on MDA-MB-435, 1.27 µM (inactive); with MDA-N it was 0.935 µM (active); in the experiment with NCI-H522, 2.71 µM (inactive); with NCI/ADR-RES it was 2.98 µM (inactive); in the experiment on SF-295, 4.58 µM (inactive). Also, the GI50 in the experiment on SK-MEL-28 was 4.88 µM (inactive); in the experiment on SK-MEL-2 it was 14 µM (inactive); in the experiment with SN12C, 5.37 µM (inactive); with SNB-19, 25.1 µM (inactive); in the experiment with SNB-75, 5.2 µM (inactive); with SW-620, 3.57 µM (inactive). Besides, the GI50 in the experiment with U-251 is 3.99 µM (inactive).
As to `O=C1C2C=CC1C1C(=O)OC(=O)C21` (stereo not given), the GI50 in the experiment with A498, in the experiment on CAKI-1, in the experiment with HOP-62, in the experiment with HT-29, in the experiment with K562 and with M14 was > 100 µM (inactive) in each case. Besides, the GI50 in the experiment with MCF7, in the experiment with MDA-MB-435, in the experiment with MDA-N, with NCI-H522, with NCI/ADR-RES and with SF-295 was > 100 µM (inactive) in each case. Moreover, the GI50 with SK-MEL-28, in the experiment on SK-MEL-2, with SN12C, in the experiment with SNB-19, with SNB-75 and in the experiment with SW-620 was > 100 µM (inactive) each time. In the experiment on U-251, the GI50 is > 100 µM (inactive).
For the molecule `CCCCCCCCCCCCCCCC(=O)Nc1ccn(C2CC(OP(=O)(O)OCC3OC(n4cc(F)c(=O)[nH]c4=O)CC3OC(C)=O)C(CO)O2)c(=O)n1` (stereo not given), the GI50 was > 35 µM (inactive) in the experiment with A498; 1.56 µM (inactive) with CAKI-1; 0.351 µM (active) in the experiment on HOP-62; 7.62 µM (inactive) in the experiment on HT-29; 13.3 µM (inactive) in the experiment on K562; 11.4 µM (inactive) with M14. In addition, the GI50 in the experiment on MCF7 was > 100 µM (inactive); in the experiment on MDA-MB-435 it was 34.7 µM (inactive); in the experiment on MDA-N, 42.5 µM (inactive); in the experiment on NCI-H522 it was 9.04 µM (inactive); in the experiment with NCI/ADR-RES, 11.4 µM (inactive); with SF-295, 1.81 µM (inactive). In addition, the GI50 is 30.5 µM (inactive) with SK-MEL-28; > 45.1 µM (inactive) in the experiment with SK-MEL-2; 6.03 µM (inactive) in the experiment on SN12C; 2.73 µM (inactive) with SNB-19; 13.7 µM (inactive) in the experiment on SNB-75; 22.9 µM (inactive) with SW-620. The GI50 in the experiment with U-251 was 15.7 µM (inactive).
As to `CNS(=O)(=O)c1ccccc1C(=N)c1ccccc1`, the GI50 in the experiment with A498, in the experiment with CAKI-1, with HOP-62, in the experiment with HT-29, with K562 and with M14 was > 100 µM (inactive) in each case. The GI50 in the experiment on MCF7, in the experiment with MDA-MB-435, with MDA-N, in the experiment with NCI-H522, with NCI/ADR-RES and with SF-295 was > 100 µM (inactive) throughout. Besides, the GI50 is > 100 µM (inactive) in the experiment on SK-MEL-28; > 100 µM (inactive) with SK-MEL-2; > 100 µM (inactive) in the experiment with SN12C; > 100 µM (inactive) in the experiment on SNB-19; 56.4 µM (inactive) in the experiment with SNB-75; > 100 µM (inactive) with SW-620. For the same molecule, the GI50 in the experiment with U-251 is > 100 µM (inactive).
With `CN1N=C(c2ccccc2)C(C(c2ccccc2[N+](=O)[O-])C2C(=O)N(C)N=C2c2ccccc2)C1=O` (stereo not given), the GI50 with A498 was > 81.8 µM (inactive); in the experiment with CAKI-1, > 100 µM (inactive); in the experiment with HOP-62, 93.1 µM (inactive); with HT-29 it was > 68.7 µM (inactive); in the experiment with K562, 33.9 µM (inactive); in the experiment with M14, > 100 µM (inactive). The GI50 is 47.1 µM (inactive) in the experiment with MCF7; > 100 µM (inactive) with MDA-MB-435; > 100 µM (inactive) with MDA-N; 99.8 µM (inactive) in the experiment on NCI-H522; > 100 µM (inactive) with NCI/ADR-RES; > 100 µM (inactive) with SF-295. In addition, the GI50 is > 100 µM (inactive) in the experiment with SK-MEL-28; 66.5 µM (inactive) in the experiment on SK-MEL-2; > 95.1 µM (inactive) with SN12C; > 100 µM (inactive) in the experiment with SNB-19; > 87.1 µM (inactive) in the experiment on SNB-75; 99.3 µM (inactive) in the experiment on SW-620. The GI50 in the experiment with U-251 was > 100 µM (inactive).
For the molecule `O=C(Nc1ccccc1C(=O)O)/C(=C/c1ccccc1)NC(=O)c1ccccc1`, the GI50 with A498, with CAKI-1, with HOP-62, with HT-29, in the experiment with K562 and in the experiment on M14 was > 100 µM (inactive) each time. Also, the GI50 with MCF7, in the experiment on MDA-MB-435, in the experiment with MDA-N, in the experiment with NCI-H522, in the experiment on NCI/ADR-RES and in the experiment with SF-295 was > 100 µM (inactive) each time. The GI50 in the experiment on SK-MEL-28, in the experiment on SK-MEL-2, with SN12C, with SNB-19, with SNB-75 and in the experiment with SW-620 was > 100 µM (inactive) throughout. In addition, the GI50 with U-251 was > 100 µM (inactive).
For `Cc1ccc(-c2nnc(-c3ccc4ccccc4c3)o2)cc1`, the GI50 is > 100 µM (inactive) with A498; 5.19 µM (inactive) in the experiment with CAKI-1; 18 µM (inactive) in the experiment with HOP-62; > 87.9 µM (inactive) in the experiment on HT-29; 7.26 µM (inactive) in the experiment with K562; 12.3 µM (inactive) in the experiment on M14. For the same molecule, the GI50 in the experiment on MCF7 is > 100 µM (inactive); in the experiment on MDA-MB-435, 8.11 µM (inactive); in the experiment with MDA-N, 17.5 µM (inactive); with NCI-H522, 69.7 µM (inactive); in the experiment with NCI/ADR-RES, 12.7 µM (inactive); in the experiment on SF-295, 36.2 µM (inactive). Further, the GI50 in the experiment on SK-MEL-28 is 33.3 µM (inactive); in the experiment on SK-MEL-2, 2.92 µM (inactive); with SN12C, 14.6 µM (inactive); with SNB-19, > 96.6 µM (inactive); with SNB-75, 6.7 µM (inactive); in the experiment on SW-620 it was 20 µM (inactive). In addition, the GI50 with U-251 is 27.7 µM (inactive).
For the molecule `CC(Cc1ccc(O)c(O)c1)C(C)Cc1ccc(O)c(O)c1` (stereo not given) [NORDIHYDROGUAIARETIC ACID], the GI50 is 37 µM (inactive) with A498; 11.4 µM (inactive) in the experiment with CAKI-1; 17.1 µM (inactive) with HOP-62; 22.9 µM (inactive) in the experiment on HT-29; 25.4 µM (inactive) in the experiment on K562; 16.5 µM (inactive) with M14. The GI50 in the experiment on MCF7 was 20.2 µM (inactive); in the experiment on MDA-MB-435, 13.5 µM (inactive); in the experiment on MDA-N it was 10.2 µM (inactive); in the experiment with NCI-H522, 2.03 µM (inactive); with NCI/ADR-RES it was 22.8 µM (inactive); in the experiment with SF-295, 22.1 µM (inactive). The GI50 in the experiment with SK-MEL-28 was 16.2 µM (inactive); in the experiment on SK-MEL-2, 18.5 µM (inactive); in the experiment with SN12C, > 36.7 µM (inactive); with SNB-19, 19.5 µM (inactive); with SNB-75, 19.8 µM (inactive); in the experiment on SW-620, 18.9 µM (inactive). Moreover, the GI50 in the experiment with U-251 is 18.7 µM (inactive).
Regarding `C[C@]12CC[C@@H]3c4ccc(O)cc4CC[C@H]3[C@@H]1C/C(=C\c1ccc([N+](=O)[O-])cc1)C2=O`, the GI50 was > 100 µM (inactive) with A498; > 100 µM (inactive) in the experiment with CAKI-1; 33.7 µM (inactive) in the experiment with HOP-62; 18.6 µM (inactive) with HT-29; 99.8 µM (inactive) in the experiment on K562; 53.3 µM (inactive) in the experiment on M14. Also, the GI50 with MCF7 was 52.1 µM (inactive); with MDA-MB-435 it was 37.8 µM (inactive); in the experiment on MDA-N, 49.5 µM (inactive); with NCI-H522, 24.1 µM (inactive); in the experiment on NCI/ADR-RES, 59.2 µM (inactive); with SF-295, > 100 µM (inactive). Moreover, the GI50 with SK-MEL-28 is > 100 µM (inactive); in the experiment with SK-MEL-2, 44.6 µM (inactive); with SN12C it was > 100 µM (inactive); in the experiment with SNB-19 it was > 100 µM (inactive); with SNB-75, 50.7 µM (inactive); in the experiment with SW-620, > 100 µM (inactive). Also, in the experiment with U-251, the GI50 was 40.1 µM (inactive).

For the origin of these results see ChEMBL document CHEMBL1201862, “PubChem BioAssay data set” (2004).
